Test results reported in patent US20240318212A1, “PHOSPHORYLATION OF PHENOLIC PHYTOCHEMICALS BY TWO ENZYMES COUPLED SYSTEM” (National Taiwan University, priority 2023, published 2024).

What was measured:
[1] = versus parent genistein; cited from earlier work
[2] = versus parent genistein; cited from earlier work; remark: listed apart in the source
[3] = test system: ovariectomized rats; settings: comparable to estradiol and raloxifene, surpassed genistein; cited from earlier work
[4] = test system: ErPPK; experiment: Effect of polyphenol derivatives on ErPPK activity; format: biochemical, unclassified Erysipelotrichaceae bacterium; settings: 0.25 mM
From the text: FIG. 4 illustrates the effect of polyphenol derivatives on ErPPK. Data are mean SD (n=3), with significance indicated by p<0.05 using t-test. n.s., non-significance.
Considering the known inhibitory effect of aromatic phosphonates on PPK2 enzymes, we investigated the impact of polyphenols and polyphenol phosphates on ErPPK activity to evaluate their integration into a one-pot bi-enzymatic system. LUT was selected as the polyphenol target, based on its incomplete conversion in microbial systems due to its toxic nature.

Row | SMILES | oral bioavailability [1] | solubility [2] | osteoprotective effects [3] | inhibitory effect on ErPPK activity [4]
1 | O=c1c(-c2ccc(O)cc2)coc2cc(OP(=O)(O)O)cc(O)c12 [Genistein 7-O-phosphate] | improved | improved | improved | –
2 | O=c1cc(-c2ccc(O)c(O)c2)oc2cc(O)cc(O)c12 [LUT, luteolin] | – | – | – | no significant inhibitory effect
